According to publication PMC10791743, “Selective CK1α degraders exert antiproliferative activity against a broad range of human cancer cell lines” (Nature Communications, 2024):
Several values for one entry are separate records, joined by “and”; a condition that tells them apart may be missing. Equal values may be shown once. Entries after “also recorded” stand apart in the source; their conditions may differ. Read-outs that look alike come from different tables or passages of the source.

How the values were obtained:
[1] = system: MOLM-13 cells overexpressing FLAG-tagged CK1α G40N mutant; assay: CK1α mutant rescue, CTG viability, FLAG-CK1α G40N MOLM-13; assay type: cell-based, human
Protocol: To evaluate the contribution of the CK1α degradation in SJ3149-mediated cytotoxicity, we utilized the degradation-resistant mutant CK1α G40N[41]. MOLM-13 cells were transduced with lentivirus to overexpress FLAG-tagged wild type CK1α or the G40N mutant, which removes the essential glycine in the CK1α degron G-loop.
The media was changed after cells rested in the 37 °C incubator overnight. […] As described above in the Molecular Glue Library Screening section, transduced MOLM-13 cells were seeded in 384-well plates at 1250 cells per well and allowed to rest overnight. 30 nl of CK1α degraders of interest were deposited on the cells using an Echo 650 acoustic liquid handler […]. […] This was done twice for a total of six technical replicates.

[2] = system: 115 human cancer cell lines; assay: Oncolines panel cell viability assay (ATPlite, 72 h); assay type: cell-based; conditions: for IC50: Homo sapiens
Text: To evaluate the compound’s effect and potential therapeutic application across a diverse range of human cancers, we profiled SJ3149 in Oncolines® panel consisting of 115 human cancer cell lines, of which 86 were solid tumor and 29 hematologic cell lines, including MOLM-13. Effect on cell viability was monitored using ATPLite™ (Perkin Elmer), which measures intracellular ATP content as an indirect readout of cell number, like CellTiter Glo.
Cell lines were purchased from the American Type Culture Collection (ATCC) (Manassas, VA, USA) or the German Collection of Microorganisms and Cell Cultures (DSMZ) (Braunschweig, Germany). All experiments were carried out within ten passages of the original vials. Authenticity of the cell lines was confirmed by short tandem repeat analysis at the respective provider.
Cell viability assays were performed as previously described. In brief, cells were seeded in a 384-well plate at an optimized density. The starting cell number was determined after 24 h incubation by adding ATPlite 1Step (Perkin Elmer, Groningen, the Netherlands) to each well and recording luminescence on an Envision multimode reader (Perkin Elmer, Waltham, MA). After the addition of a duplicate 9-point dilution series of SJ3149, cells were incubated for another 72 h, followed by cell counting using ATPlite 1Step. The dilution series ranged from 3.2 to 31,600 nM or was diluted 100-fold for the most sensitive cell lines to ideally capture the complete dose–response curve. Percentage viability was determined at each compound concentration by relating the observed signal to a vehicle-treated control, that is, medium containing 0.4% (v/v) DMSO. Compound IC50 values were calculated by fitting a 4-parameter logistic curve to the percentage viability values using IDBS XLfit5 (IDBS, Guildford, UK). The IC50 was limited to the maximum tested compound concentration when the IC50 exceeded the maximum tested concentration.

O=C1CCC(N2Cc3cc(Nc4noc5ccccc45)ccc3C2=O)C(=O)N1 (stereo not shown) [SJ3149]
Viability response of cells expressing CK1α G40N vs wild type CK1α ([1]; CTG 72 h): no longer sensitive to SJ3149; also recorded: reduced response
cell viability percentages, CK1a G40N ([1]; Concentration 0.000542): 79.1206% and 68.9136% and 86.2719% and 90.6755% and 74.2686% and 67.4931%
cell viability percentages, CK1a G40N ([1]; Concentration 0.001625): 77.8434% and 63.4222% and 59.9052% and 65.772% and 68.5727% and 55.5817%
cell viability percentages, CK1a G40N ([1]; Concentration 0.004875): 72.8442% and 62.075% and 50.1243% and 53.1953% and 62.3344% and 69.4392%
cell viability percentages, CK1a G40N ([1]; Concentration 0.014624): 59.4413% and 49.1388% and 62.3084% and 70.556% and 54.4032% and 55.8792%
cell viability percentages, CK1a G40N ([1]; Concentration 0.043872): 47.6849% and 48.0051% and 58.611% and 66.0269% and 52.3495% and 54.2867%
cell viability percentages, CK1a G40N ([1]; Concentration 0.131617): 56.3532% and 47.9219% and 49.9326% and 67.2267% and 57.1406% and 57.2358%
cell viability percentages, CK1a G40N ([1]; Concentration 0.394851): 51.3415% and 43.4521% and 48.9175% and 55.4224% and 56.3876% and 59.8672%
cell viability percentages, CK1a G40N ([1]; Concentration 1.18455): 47.8506% and 47.8436% and 44.0498% and 54.2517% and 50.6636% and 54.2115%
cell viability percentages, CK1a G40N ([1]; Concentration 3.55366): 37.4202% and 38.8791% and 44.5898% and 50.284% and 52.251% and 51.3543%
Inhibition of viability in Oncolines panel cell lines ([2]; ATPlite, 72 h): potently inhibited the viability of AML cell lines; also recorded: potently inhibited the viability of multiple cell lines derived from solid tumors; also recorded: low nanomolar or even sub-nanomolar potency
IC50 ([2]; 769-P, cell line 769-P, Renal cell carcinoma, TP53 Wild-type, read-out: IC50): 101 nM
IC50 ([2]; A204, cell line A-204, Embryonal rhabdomyosarcoma, TP53 Wild-type, read-out: IC50): 16 nM
IC50 ([2]; A498, cell line A-498, Renal cell carcinoma, TP53 Wild-type, read-out: IC50): 5660 nM
IC50 ([2]; A549, cell line A-549, Lung adenocarcinoma, TP53 Wild-type, read-out: IC50): 38 nM
IC50 ([2]; A-375, cell line A375, Amelanotic melanoma, TP53 Wild-type, read-out: IC50): 33 nM
IC50 ([2]; ACHN, cell line ACHN, Papillary renal cell carcinoma, TP53 Wild-type, read-out: IC50): 187 nM
IC50 ([2]; AU565, cell line AU-565, Breast adenocarcinoma, TP53 Mutant, read-out: IC50): 19200 nM
IC50 ([2]; B-cell, HT, Diffuse large B-cell lymphoma, read-out: IC50): > 31600 nM
IC50 ([2]; B-cell, RL, Diffuse large B-cell lymphoma, TP53 Mutant, read-out: IC50): 27200 nM
IC50 ([2]; B-cell, cell line DB, Diffuse large B-cell lymphoma, TP53 Mutant, read-out: IC50): > 31600 nM
IC50 ([2]; BT-20, cell line BT-20, Invasive ductal carcinoma, TP53 Mutant, read-out: IC50): 30 nM
IC50 ([2]; BT-549, cell line BT-549, Invasive ductal carcinoma, TP53 Mutant, read-out: IC50): 12 nM
IC50 ([2]; CCRF-CEM, cell line CCRF-CEM, Childhood T acute lymphoblastic leukemia, TP53 Mutant, read-out: IC50): 24100 nM
IC50 ([2]; CCRF-HSB-2, CCRF-HSB-2 cells, T-ALL, read-out: IC50): 16 nM
IC50 ([2]; CCRF-HSB-2, cell line CCRF-HSB-2, Childhood T acute lymphoblastic leukemia, TP53 Wild-type, read-out: IC50): 16 nM
IC50 ([2]; CTV-1, cell line CTV-1, Adult T acute lymphoblastic leukemia, TP53 Wild-type, read-out: IC50): 212 nM
IC50 ([2]; DU-4475, cell line DU4475, Breast carcinoma, TP53 Wild-type, read-out: IC50): 16 nM
IC50 ([2]; HuTu80, HuTu 80, Duodenal adenocarcinoma, read-out: IC50): 4.6 nM
IC50 ([2]; J82, Bladder carcinoma, read-out: IC50): > 31600 nM
IC50 ([2]; JAR, Gestational choriocarcinoma, read-out: IC50): 69 nM
IC50 ([2]; JM-1, B acute lymphoblastic leukemia, read-out: IC50): 39 nM
IC50 ([2]; Jurkat E6.1, Jurkat E6.1, Childhood T acute lymphoblastic leukemia, read-out: IC50): 21200 nM
IC50 ([2]; KATO III, Signet ring cell gastric adenocarcinoma, read-out: IC50): 31400 nM
IC50 ([2]; KG-1, Adult acute myeloid leukemia, read-out: IC50): 3480 nM
IC50 ([2]; KLE, Endometrial adenocarcinoma, read-out: IC50): 28 nM
IC50 ([2]; KU812, KU812, Chronic myelogenous leukemia, read-out: IC50): 0.75 nM
IC50 ([2]; LNCaP, LNCaP FGC, Prostate carcinoma, read-out: IC50): 91 nM
IC50 ([2]; LS174T, LS 174T, Colon adenocarcinoma, read-out: IC50): 16 nM
IC50 ([2]; LoVo, Colon adenocarcinoma, read-out: IC50): 0.28 nM
IC50 ([2]; MCF7, MCF7, Invasive ductal carcinoma, read-out: IC50): 18 nM
IC50 ([2]; MOLM-13, MOLM-13, Adult acute myeloid leukemia, read-out: IC50): 4.2 nM
IC50 ([2]; MOLM-13, MOLM-13 cells, AML, read-out: IC50): 4.2 nM
IC50 ([2]; MOLT-4, MOLT-4, Adult T acute lymphoblastic leukemia, read-out: IC50): 35 nM
IC50 ([2]; NB4, Acute promyelocytic leukemia with PML-RARA, read-out: IC50): > 31600 nM
IC50 ([2]; NCCIT, Testicular embryonal carcinoma, read-out: IC50): 4.2 nM
IC50 ([2]; NOMO-1, NOMO-1, Adult acute monocytic leukemia, read-out: IC50): 53 nM
IC50 ([2]; PA-1, Ovarian mixed germ cell tumor, TP53 Wild-type, read-out: IC50): 2.8 nM
IC50 ([2]; PC-3, Prostate carcinoma, TP53 Mutant, read-out: IC50): > 31600 nM
IC50 ([2]; RD, Embryonal rhabdomyosarcoma, TP53 Mutant, read-out: IC50): 104 nM
IC50 ([2]; RKO, Colon carcinoma, TP53 Wild-type, read-out: IC50): 26800 nM
IC50 ([2]; RL95-2, RL95-2, Endometrial adenosquamous carcinoma, TP53 Mutant, read-out: IC50): 58 nM
IC50 ([2]; RPMI 8402, RPMI-8402, Childhood T acute lymphoblastic leukemia, TP53 Wild-type, read-out: IC50): 24200 nM
IC50 ([2]; RS4-11, RS4-11, Adult B acute lymphoblastic leukemia, TP53 Wild-type, read-out: IC50): 2.1 nM
IC50 ([2]; RT4, Bladder carcinoma, TP53 Wild-type, read-out: IC50): 1240 nM
IC50 ([2]; SEM, Childhood B acute lymphoblastic leukemia, TP53 Mutant, read-out: IC50): 134 nM
IC50 ([2]; SET-2, SET-2, Adult acute megakaryoblastic leukemia, TP53 Mutant, read-out: IC50): 32 nM
IC50 ([2]; SJCRH30, Alveolar rhabdomyosarcoma, TP53 Mutant, read-out: IC50): > 31600 nM
IC50 ([2]; SK-N-FI, Neuroblastoma, TP53 Mutant, read-out: IC50): 36 nM
IC50 ([2]; SR, Anaplastic large cell lymphoma, TP53 Mutant, read-out: IC50): 58 nM
IC50 ([2]; SR, SR cells, ALCL, read-out: IC50): 58 nM
IC50 ([2]; SU-DHL-1, SU-DHL-1, Anaplastic large cell lymphoma, TP53 Mutant, read-out: IC50): 12900 nM
IC50 ([2]; SU-DHL-6, SU-DHL-6, Diffuse large B-cell lymphoma, TP53 Mutant, read-out: IC50): 79 nM
IC50 ([2]; SW48, SW48, Colon adenocarcinoma, TP53 Wild-type, read-out: IC50): 19 nM
IC50 ([2]; SW900, SW900, Squamous cell lung carcinoma, TP53 Mutant, read-out: IC50): 419 nM
IC50 ([2]; SW982, SW982, Biphasic synovial sarcoma, TP53 Wild-type, read-out: IC50): 11 nM
IC50 ([2]; T24, Bladder carcinoma, TP53 Mutant, read-out: IC50): > 31600 nM
IC50 ([2]; cell line 5637, Bladder carcinoma, TP53 Mutant, read-out: IC50): 27800 nM
IC50 ([2]; cell line A388, Squamous cell carcinoma, TP53 Mutant, read-out: IC50): > 31600 nM
IC50 ([2]; cell line AP-1060, Acute promyelocytic leukemia with PML-RARA, TP53 Unknown, read-out: IC50): 1.3 nM
IC50 ([2]; cell line ES-2, Ovarian clear cell adenocarcinoma, TP53 Mutant, read-out: IC50): > 31600 nM
IC50 ([2]; cell line TT (Hereditary thyroid gland medullary carcinoma), TP53 Wild-type, read-out: IC50): 2.2 nM
IC50 ([2]; multiple cell lines from diverse tumor tissue origins, read-out: IC50 in insensitive cell lines): > 31600 nM
